According to patent publication US20220106328A1, “HETEROCYCLIC COMPOUNDS” (Hoffmann-La Roche Inc., priority 2019, published 2022):

Target: T1, MAGL (Homo sapiens, UniProt Q99685)
T1 sequence (Q99685 1-303): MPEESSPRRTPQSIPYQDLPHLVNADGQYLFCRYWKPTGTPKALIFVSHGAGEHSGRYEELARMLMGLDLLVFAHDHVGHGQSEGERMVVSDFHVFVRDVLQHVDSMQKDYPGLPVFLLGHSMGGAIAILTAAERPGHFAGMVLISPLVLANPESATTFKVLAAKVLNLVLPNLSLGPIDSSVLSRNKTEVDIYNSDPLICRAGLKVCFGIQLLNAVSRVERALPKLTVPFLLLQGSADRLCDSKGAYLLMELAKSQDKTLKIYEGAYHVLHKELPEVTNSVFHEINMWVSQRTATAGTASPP
Assay: 2-AG assay (MAGL inhibitory activity; hydrolysis of 2-arachidonoylglycerol to arachidonic acid followed by mass spectrometry)
Type: biochemical
Settings: 8 μM 2-arachidonoylglycerol, 15 min pre-incubation, 30 min incubation at rt, RapidFire MS read-out
Description: Compounds were profiled for MAGL inhibitory activity by determining the enzymatic activity by following the hydrolysis of the natural substrate 2-arachidonoylglycerol resulting in arachidonic acid, which can be followed by mass spectrometry. This assay is hereinafter abbreviated “2-AG assay”.
A C18 SPE cartridge (G9205A) was used in an ACN/water liquid setup. […] The activity of the compounds was calculated based on the ratio of intensities [arachidonic acid/d8-arachidonic acid].

Row | Compound | IC50
1 | O=C1CO[C@@H]2CCN(C(=O)N3CCC(Cc4ccc(C(F)(F)F)cc4)CC3)C[C@H]2N1 (single isomer, unassigned) [Example 28, (+)- or (−)-trans-6-[4-[[4-(Trifluoromethyl)phenyl]methyl]piperidine-1-carbonyl]-4,4a,5,7,8,8a-hexahydropyrido[4,3-b][1,4]oxazin-3-one] | 2560 nM
2 | O=C1CO[C@H]2CCN(C(=O)N3CCC(c4cn(CCO)c5ccc(Cl)cc45)CC3)C[C@@H]2N1 (single isomer, unassigned) [Example 30, (−)- or (+)-trans-6-[4-[5-Chloro-1-(2-hydroxyethyl)indol-3-yl]piperidine-1-carbonyl]-4,4a,5,7,8,8a-hexahydropyrido[4,3-b][1,4]oxazin-3-one] | 530 nM

More lines, now with the values ahead:

Row | IC50 | Compound
3 | 118 nM | O=C1CO[C@@H]2CCN(C(=O)N3CCC4(CC3)CC(Oc3ccc(C(F)(F)F)cc3F)C4)C[C@H]2N1 (single isomer, unassigned) [Example 26, (+)- or (−)-trans-6-[2-[2-Fluoro-4-(trifluoromethyl)phenoxy]-7-azaspiro[3.5]nonane-7-carbonyl]-4,4a,5,7,8,8a-hexahydropyrido[4,3-b][1,4]oxazin-3-one]
4 | 7 nM | O=C1CO[C@H]2CCN(C(=O)N3CCC4(CC3)CC(Oc3ccc(C(F)(F)F)cc3F)C4)C[C@@H]2N1 (single isomer, unassigned) [Example 27, (−)- or (+)-trans-6-[2-[2-Fluoro-4-(trifluoromethyl)phenoxy]-7-azaspiro[3.5]nonane-7-carbonyl]-4,4a,5,7,8,8a-hexahydropyrido[4,3-b][1,4]oxazin-3-one]
5 | 1300 nM | O=C1CO[C@H]2CCN(C(=O)N3CCC(Cc4ccc(C(F)(F)F)cc4)CC3)C[C@@H]2N1 (single isomer, unassigned) [Example 29, (−)- or (+)-trans-6-[4-[[4-(Trifluoromethyl)phenyl]methyl]piperidine-1-carbonyl]-4,4a,5,7,8,8a-hexahydropyrido[4,3-b][1,4]oxazin-3-one]
